The text below walks through data of ChEMBL document CHEMBL1201862, “PubChem BioAssay data set” (2004).

Some test systems named below: A498; A549; HT-29; IGROV-1; M14; NCI-H226; OVCAR-5; RPMI-8226; SF-268; SF-539; SK-MEL-28; SK-MEL-2; SK-OV-3; SNB-75; U-251; UO-31; COLO 205; HL-60; OVCAR-4; UACC-62.
Holding throughout (assay): inhibition of tumour cell growth, NCI panel, 48 h

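Test compounds were applied to cells in 96-well plates for 48 hours at 5 doses. GI50 is the concentration that inhibits growth by half.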 Calls of active or inactive are those of the source. Cut-off read from the data, not from the text of the source: active = GI50 up to about 1.1 µM and inactive = higher. Where only a bound is given, the exact number is not on record here.

As for `COc1ccc(C(=O)c2c3cc(OC)c(OC)c(OC)c3cc[n+]2C)cc1`, the GI50 in the experiment on A498 was 36.7 µM (inactive); with A549 it was 17.8 µM (inactive); with HT-29, 30.3 µM (inactive); in the experiment on IGROV-1, 34.8 µM (inactive); with M14, 29.6 µM (inactive); in the experiment on NCI-H226, 19.7 µM (inactive). For the same molecule, the GI50 with OVCAR-5 is > 100 µM (inactive); with RPMI-8226 it was 10.2 µM (inactive); with SF-268, 37.9 µM (inactive); in the experiment on SF-539 it was > 10 µM (inactive); in the experiment with SK-MEL-28, 28.5 µM (inactive); with SK-MEL-2, 21.1 µM (inactive). Also, the GI50 was 38.4 µM (inactive) in the experiment on SK-OV-3, 27.9 µM (inactive) with SNB-75, 40 µM (inactive) with U-251 and 26 µM (inactive) in the experiment on UO-31.

For the molecule `Nc1ccc2cc(S(=O)(=O)O)cc(O)c2c1/N=N/c1ccc(NC(=O)Nc2ccc(/N=N/c3c(N)ccc4cc(S(=O)(=O)O)cc(O)c34)c(S(=O)(=O)O)c2)cc1S(=O)(=O)O`, the GI50 in the experiment on A498 was > 100 µM (inactive); in the experiment with A549, > 100 µM (inactive); with COLO 205, > 100 µM (inactive); in the experiment with HL-60, 44.4 µM (inactive); in the experiment on HT-29, > 100 µM (inactive); in the experiment on IGROV-1, > 100 µM (inactive). Further, the GI50 in the experiment on NCI-H226 is > 100 µM (inactive); in the experiment on OVCAR-4, > 84.1 µM (inactive); in the experiment with OVCAR-5, > 79.6 µM (inactive); with SF-268, > 100 µM (inactive); in the experiment with SF-539, > 100 µM (inactive); in the experiment with SK-MEL-28, > 100 µM (inactive). For the same molecule, the GI50 in the experiment on SK-MEL-2 is > 100 µM (inactive); in the experiment with SK-OV-3, > 100 µM (inactive); in the experiment with SNB-75, 95.9 µM (inactive); with U-251, > 100 µM (inactive); in the experiment with UACC-62, > 100 µM (inactive); in the experiment on UO-31, > 100 µM (inactive).

Consider `CC(C)CNc1nc2ncnc(N)c2[nH]1`, for which the GI50 is > 100 µM (inactive) with A498; > 100 µM (inactive) in the experiment on A549; > 100 µM (inactive) in the experiment with COLO 205; < 0.01 µM (active) with HL-60; > 100 µM (inactive) with HT-29; > 100 µM (inactive) in the experiment on IGROV-1. Further, the GI50 in the experiment with M14, with NCI-H226, in the experiment on OVCAR-4, in the experiment on OVCAR-5, in the experiment with RPMI-8226 and in the experiment on SF-268 was > 100 µM (inactive) throughout. Also, the GI50 in the experiment with SF-539, in the experiment on SK-MEL-28, with SK-MEL-2, in the experiment on SK-OV-3, with U-251 and in the experiment with UACC-62 was > 100 µM (inactive) throughout. Also, in the experiment on UO-31, the GI50 is > 100 µM (inactive).

Consider `CC12C3C4C1C1C2C3C41CO` (stereo not drawn), for which the GI50 in the experiment on A498, in the experiment on A549, in the experiment on COLO 205, in the experiment with HL-60, in the experiment on HT-29 and with IGROV-1 was > 100 µM (inactive) throughout. The GI50 with M14, in the experiment with NCI-H226, in the experiment with OVCAR-4, in the experiment on OVCAR-5, in the experiment on SF-539 and in the experiment on SK-MEL-28 was > 100 µM (inactive) in each case. Further, the GI50 was > 100 µM (inactive) in the experiment with SK-MEL-2; > 100 µM (inactive) with SK-OV-3; 34 µM (inactive) with SNB-75; > 100 µM (inactive) with U-251; > 100 µM (inactive) with UACC-62; > 100 µM (inactive) in the experiment on UO-31.

On to `FC(F)(F)c1ccc2c(c1)nc1n2C(c2c(Cl)cccc2Cl)SC1` (stereo not drawn), for which the GI50 with A498 was 17.9 µM (inactive); in the experiment on A549, 18.2 µM (inactive); in the experiment on HL-60 it was 23.8 µM (inactive); in the experiment on HT-29 it was 16.1 µM (inactive); with IGROV-1, 17.3 µM (inactive); in the experiment with M14, 16.1 µM (inactive). Besides, the GI50 is 21.1 µM (inactive) in the experiment on NCI-H226; 18.3 µM (inactive) in the experiment on OVCAR-4; 15.5 µM (inactive) in the experiment with OVCAR-5; 19.1 µM (inactive) in the experiment on SF-268; 19.7 µM (inactive) with SF-539; 14.4 µM (inactive) in the experiment on SK-MEL-28. In addition, the GI50 is 17.7 µM (inactive) with SK-MEL-2; 25.8 µM (inactive) with SK-OV-3; 15.1 µM (inactive) in the experiment on SNB-75; 19.3 µM (inactive) in the experiment on U-251; 14.4 µM (inactive) in the experiment with UACC-62; 15.4 µM (inactive) with UO-31.

As for `Cn1nc(-c2ccccc2)c(C(=O)/C=C/c2ccccc2)c(N2CCCC2)c1=O`, the GI50 in the experiment with A498 was 11.4 µM (inactive); in the experiment with A549, 19.9 µM (inactive); with COLO 205, 14.9 µM (inactive); with HL-60, 4.34 µM (inactive); with HT-29 it was 12.6 µM (inactive); in the experiment with IGROV-1 it was 21.2 µM (inactive). The GI50 in the experiment on M14 was 15.7 µM (inactive); with RPMI-8226, 6.35 µM (inactive); with SF-268, 13.7 µM (inactive); with SF-539, 13.2 µM (inactive); in the experiment with SK-MEL-28, 16.6 µM (inactive); in the experiment with SK-OV-3, 22.7 µM (inactive). Besides, the values for the GI50 in the experiment with U-251, with UACC-62 and in the experiment with UO-31 were 12.9 µM (inactive), 13.9 µM (inactive) and 21.4 µM (inactive), respectively.

As to `Cn1c(=O)c2[nH]c(/N=N/N3CCN(CCO)CC3)nc2n(C)c1=O`, the GI50 in the experiment with A498, in the experiment with A549, with COLO 205, in the experiment on HL-60, in the experiment on HT-29 and in the experiment on IGROV-1 was > 100 µM (inactive) each time. Moreover, the GI50 in the experiment with M14, with NCI-H226, in the experiment on OVCAR-4, in the experiment on OVCAR-5, with RPMI-8226 and in the experiment on SF-268 was > 100 µM (inactive) in each case. For the same molecule, the GI50 with SF-539, in the experiment on SK-MEL-28, in the experiment with SK-MEL-2, in the experiment with SK-OV-3, in the experiment with U-251 and in the experiment with UACC-62 was > 100 µM (inactive) each time. Also, the GI50 in the experiment on UO-31 was > 100 µM (inactive).

For the molecule `FC(F)(F)c1ccc(/N=N/N2CCCC2)cc1`, the GI50 in the experiment on A498, with A549, in the experiment on COLO 205, in the experiment with HL-60, in the experiment with HT-29 and in the experiment with IGROV-1 was > 100 µM (inactive) in each case. In addition, the GI50 in the experiment on M14, in the experiment on NCI-H226, in the experiment with OVCAR-4, in the experiment with OVCAR-5, in the experiment with RPMI-8226 and in the experiment with SF-268 was > 100 µM (inactive) in each case. The GI50 in the experiment with SF-539, in the experiment with SK-MEL-28, with SK-MEL-2, with SK-OV-3, in the experiment with U-251 and with UACC-62 was > 100 µM (inactive) throughout. For the same molecule, in the experiment on UO-31, the GI50 was 54.7 µM (inactive).

`COc1cc(=O)oc(/C=C/C=O)c1C`: the GI50 with A498 is > 100 µM (inactive); with A549, > 100 µM (inactive); in the experiment on COLO 205, 16.4 µM (inactive); in the experiment with HL-60, 13.5 µM (inactive); in the experiment with HT-29, 19.9 µM (inactive); with IGROV-1, 30.4 µM (inactive). The GI50 in the experiment on M14 was 17.9 µM (inactive); with NCI-H226 it was 31.2 µM (inactive); in the experiment with OVCAR-4, 17 µM (inactive); with OVCAR-5 it was 38.3 µM (inactive); with SF-268 it was 13.6 µM (inactive); with SF-539 it was 18.7 µM (inactive). Moreover, the GI50 is 12.6 µM (inactive) in the experiment on SK-MEL-28; 27.2 µM (inactive) in the experiment with SK-OV-3; 16.3 µM (inactive) in the experiment with SNB-75; 14.3 µM (inactive) with U-251; 16 µM (inactive) in the experiment with UACC-62; 20.8 µM (inactive) in the experiment on UO-31.

For the molecule `CC1=NC(=O)CNN1C1=NNC2(C(=O)N1)c1ccccc1-c1ccccc12`, the GI50 with A498, with A549, in the experiment with COLO 205, with HL-60, with HT-29 and in the experiment on IGROV-1 was > 100 µM (inactive) in each case. The GI50 with M14, in the experiment on NCI-H226, with OVCAR-4, with OVCAR-5, in the experiment on SF-268 and in the experiment with SF-539 was > 100 µM (inactive) in each case. The GI50 with SK-MEL-28, with SK-MEL-2, in the experiment on SK-OV-3, with SNB-75, with U-251 and in the experiment on UACC-62 was > 100 µM (inactive) in each case. In addition, the GI50 with UO-31 was > 100 µM (inactive).

Consider `CC1(C)[C@H](C(=O)O)N2C(=O)[C@@H](NS(=O)(=O)c3ccc([N+](=O)[O-])cc3)[C@H]2S1(=O)=O`, for which the GI50 with A498, in the experiment with A549, with COLO 205, with HL-60, in the experiment on HT-29 and with IGROV-1 was > 100 µM (inactive) each time. For the same molecule, the GI50 in the experiment with M14, in the experiment with NCI-H226, in the experiment with OVCAR-4, in the experiment with OVCAR-5, in the experiment with SF-268 and in the experiment on SF-539 was > 100 µM (inactive) throughout. Moreover, the GI50 in the experiment with SK-MEL-28, in the experiment on SK-MEL-2, in the experiment with SK-OV-3, with SNB-75, in the experiment with U-251 and in the experiment with UACC-62 was > 100 µM (inactive) each time. Further, the GI50 with UO-31 is > 100 µM (inactive).
